pIC50: −log10 of the molar value. Several values for one entry are separate records, joined by “and”; a condition that tells them apart may be missing. Equal values may be shown once. Read-outs that look alike come from different tables or passages of the source.
Legend:
human SCLC NCI-H69 cells = test: Protection from etoposide-induced cytotoxicity, NCI-H69; format: cell-based
Protocol: Human small cell lung cancer (SCLC) OC—NYH (de Leij et al., 1985) and NCI-H69 cells (Cuttitta et al., 1981) were grown in RPMI-1640 medium supplemented with 10% fetal calf serum, 100 U/mL penicillin-streptomycin at 37° C. in a humidified atmosphere containing 5% CO2 in the dark.
Clonogenic assay was performed essentially as described in Jensen et al., 1993. […] Cells were then plated in 0.3% agar in 6 cm petri dishes with sheep red blood cells as feeder layer in triplicate, and were incubated under the same conditions as described above. Plates were counted after 3 weeks.

[1] = target: T1, wild-type human topoisomerase II α (Homo sapiens, UniProt P11388); test: Topoisomerase II DNA strand passage assay (kDNA decatenation), wild-type enzyme; format: biochemical; details: wild-type enzyme
T1 construct: made in house; host or cells: yeast (over-expressing yeast cells)
Protocol: Topoisomerase II catalytic activity (DNA strand passage activity) was measured by using a filter-based kDNA decatenation assay as described in Jensen et al., 2002. Briefly, 200 ng ^3H labelled kDNA isolated from C. fasciculata was incubated with increasing concentrations of drug in 20 μL reaction buffer containing 10 mM TRIS-HCl pH 7.7, 50 mM NaCl, 50 mM KCl, 5 mM MgCl2, 1 mM EDTA, 15 μg/mL BSA and 1 mM ATP using two units of purified wild-type or Y165S mutant topoisomerase II α for 20 minutes at 37° C. (where one unit of activity is defined as the amount of enzyme required for complete decatenation in the absence of drug). After addition of 5× stop buffer (5% Sarkosyl, 0.0025% bromophenol blue, and 50% glycerol), unprocessed kDNA network and decatenated DNA mini-circles were separated by filtering, and the amount of unprocessed kDNA in each reaction was determined by scintillation counting.
FIG. 2 describes the results of studies of the inhibition of topoisomerase II DNA strand passage activity by increasing concentrations of NSC 35866. Inhibition of human topoisomerase II α DNA strand passage activity was assessed by decatenation of tritium-labelled Crithidia fasiculata kDNA using a filter-based assay to separate unprocessed kDNA network from decatenated mini-circles. […] Error bars represent SEM of three independent experiments in panel A and two independent experiments in panel B.
Inhibition of human topoisomerase II α DNA strand passage activity was determined by decatenation of tritium labelled Crithidia fasiculata kDNA as described for FIG. 2. Error bars represent SEM of 3 or 4 independent experiments.

[2] = target: T2, bisdioxopiperazine resistant Y165S mutant human topoisomerase II α (Homo sapiens, UniProt P11388, Y165S); format: biochemical; details: FIG. 2-B
T2 construct: made in house; host or cells: yeast (over-expressing yeast cells)

human SCLC OC—NYH cells [3] = test: Alkaline elution assay (DNA breaks); format: cell-based
Protocol: Alkaline elution assay was performed as described in Kohn et al., 1976 with modifications as described in Sehested et al., 1998. Briefly, to assess the ability of NSC 35866 to protect against etoposide-induced DNA breaks, cells were incubated with increasing concentrations of NSC 35866 for 10 minutes, before 3 μM etoposide was added to the samples. The cells were then co-incubated with 3 μM etoposide along with the same concentrations of NSC 35866 for 60 minutes. Some samples contained no etoposide in order to assess whether NSC 35866 induced DNA breaks by itself. After incubation with drug, cells were lysed and the DNA fragments eluted. DNA in the experimental OC—NYH cells was metabolically labelled by ^14C-thymidine incorporation while DNA in the internal control L1210 cells was metabolically labelled by ^3H-thymidine incorporation.
FIG. 9 describes the results of studies of the ability of NSC 35866 to antagonise DNA breaks induced by etoposide in human SCLC OC—NYH cells in a dose dependent manner. Alkaline DNA elution was used to detect DNA fragmentation induced by 3 μM etoposide in the presence of increasing concentrations of NSC 35866 as described herein. H202 treated mouse leukemic L1210 cells were used as internal control for DNA fragmentation. The DNA of the experimental OC—NYH cells was ^14C-labelled while the DNA of the L1210 cells was 3H-labelled.

topoisomerase II α = topoisomerase II α (Homo sapiens, UniProt P11388); test: Topoisomerase II ATPase assay (coupled, NADH oxidation); format: biochemical; design: made in house; host or cells: yeast (over-expressing yeast cells)
human SCLC OC—NYH cells [4] = test: Clonogenic assay, antagonism of etoposide-induced cytotoxicity; format: cell-based; details: 20 μM etoposide, one hour; 20 min pre-exposure
Protocol: Cells were then plated in 0.3% agar in 6 cm petri dishes with sheep red blood cells as feeder layer in triplicate, and were incubated under the same conditions as described above. Plates were counted after 3 weeks.
20 μM etoposide was then added, and the cells were incubated for one hour. Next, the drugs were washed out and the cells were plated and counted after three weeks as described herein.

Chain of topoisomerase II α (P11388 whole entry): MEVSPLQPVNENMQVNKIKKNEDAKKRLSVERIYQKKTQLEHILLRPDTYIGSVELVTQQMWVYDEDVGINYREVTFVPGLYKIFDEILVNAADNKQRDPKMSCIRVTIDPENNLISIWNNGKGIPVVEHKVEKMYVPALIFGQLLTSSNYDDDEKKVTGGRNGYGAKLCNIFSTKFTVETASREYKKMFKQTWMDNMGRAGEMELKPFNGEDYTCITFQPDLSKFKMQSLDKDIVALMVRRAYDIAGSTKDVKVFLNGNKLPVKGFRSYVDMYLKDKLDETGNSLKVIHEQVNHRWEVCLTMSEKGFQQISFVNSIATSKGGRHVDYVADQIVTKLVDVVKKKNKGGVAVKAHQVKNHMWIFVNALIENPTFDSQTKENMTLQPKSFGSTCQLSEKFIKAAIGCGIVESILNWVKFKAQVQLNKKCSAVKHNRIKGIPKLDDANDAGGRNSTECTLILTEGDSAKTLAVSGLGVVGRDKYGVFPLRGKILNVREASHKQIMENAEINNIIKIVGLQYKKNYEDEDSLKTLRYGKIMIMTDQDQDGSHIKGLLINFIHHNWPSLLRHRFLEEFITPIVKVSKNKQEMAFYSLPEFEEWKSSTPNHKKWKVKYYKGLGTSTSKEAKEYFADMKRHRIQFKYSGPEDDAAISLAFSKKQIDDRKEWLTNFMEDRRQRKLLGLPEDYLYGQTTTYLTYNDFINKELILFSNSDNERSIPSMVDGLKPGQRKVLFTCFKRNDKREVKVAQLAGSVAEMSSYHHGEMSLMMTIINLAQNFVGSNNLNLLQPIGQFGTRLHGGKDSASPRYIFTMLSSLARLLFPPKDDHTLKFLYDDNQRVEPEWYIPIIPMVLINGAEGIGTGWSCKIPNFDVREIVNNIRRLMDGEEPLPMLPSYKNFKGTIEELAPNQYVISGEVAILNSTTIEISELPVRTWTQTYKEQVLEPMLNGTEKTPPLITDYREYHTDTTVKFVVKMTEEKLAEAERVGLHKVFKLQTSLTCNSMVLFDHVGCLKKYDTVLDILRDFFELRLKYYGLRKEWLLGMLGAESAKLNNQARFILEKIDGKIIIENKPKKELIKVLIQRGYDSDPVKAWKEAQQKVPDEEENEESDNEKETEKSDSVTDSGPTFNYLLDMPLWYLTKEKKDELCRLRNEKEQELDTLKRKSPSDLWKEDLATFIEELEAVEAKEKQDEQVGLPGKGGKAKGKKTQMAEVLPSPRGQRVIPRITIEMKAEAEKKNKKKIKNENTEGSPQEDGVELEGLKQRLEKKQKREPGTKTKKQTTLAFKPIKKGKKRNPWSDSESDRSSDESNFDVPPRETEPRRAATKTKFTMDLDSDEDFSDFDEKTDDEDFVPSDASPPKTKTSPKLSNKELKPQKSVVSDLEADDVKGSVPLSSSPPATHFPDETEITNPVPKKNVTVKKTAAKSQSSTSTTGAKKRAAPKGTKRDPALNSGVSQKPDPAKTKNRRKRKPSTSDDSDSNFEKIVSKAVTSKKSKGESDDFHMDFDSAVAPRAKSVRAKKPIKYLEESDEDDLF
T1 sequence (P11388 whole entry): as above
T2 sequence (P11388 whole entry Y165S): as the sequence (P11388 whole entry) above, with Y165S counted along it

For `Nc1nc(SCCc2ccccc2)c2nc[nH]c2n1` [NSC 35866, 2-amino-6-(phenylethylthio)-purine], the “protection from etoposide-induced cytotoxicity, in words” value (human SCLC NCI-H69 cells) was “capable of protecting”, the “concentrations at which DNA strand passage activity is inhibited” value ([1]; FIG. 2-A) was “above 250 μM” and the “inhibition of DNA strand passage (decatenation) activity, in words” value ([1]; FIG. 2-A and FIG. 5) was “clearly less potent in comparison with the reference compound ICRF-187”. The “inhibition of catalytic activity of the Y165S protein, in words” value [2] was “capable of doing so”, the “effect on DNA breaks induced by 3 μM etoposide, in words” value (from here on “effect on DNA breaks induced”) (human SCLC OC—NYH cells [3]; 30 μM, repeated assay) was “no detectable effect” and the “effect on DNA breaks induced” value (human SCLC OC—NYH cells [3]; 100 μM) was “no detectable effect”. The “effect on DNA breaks induced” value (human SCLC OC—NYH cells [3]; 100 μM, repeated assay) was “no detectable effect”, the “effect on DNA breaks induced” value (human SCLC OC—NYH cells [3]; 300 μM, repeated assay) was “partly antagonised” and the “effect on DNA breaks induced” value (human SCLC OC—NYH cells [3]; 500 μM) was “partly antagonised”. For the same molecule, the “effect on DNA breaks induced” value (human SCLC OC—NYH cells [3]; 1000 μM) was “completely antagonised”, the “DNA breaks induced by the drug alone, in words” value (human SCLC OC—NYH cells [3]; concentrations up to 1000 μM, no etoposide) was “does not induce detectable levels of DNA breaks” and the inhibition at 300 µM (topoisomerase II α; 300 μM, in the presence of DNA, read-out: inhibition of the total ATPase activity) was 75%. For the same molecule, the “inhibition of ATPase activity in the presence of DTT, in words” value (topoisomerase II α; 10 mM DTT in the reaction buffer) was “could inhibit ATPase activity”, the pIC50 (topoisomerase II α; in the presence of DNA (DNA-stimulated), read-out: IC50, inhibition of ATPase activity) was 4.30 and 4.00 to 4.52 and the pIC50 (topoisomerase II α; without DNA, read-out: IC50, inhibition of DNA-independent ATPase activity) was 3.52. For the same molecule, the “reduction of etoposide-induced cytotoxicity” value (human SCLC OC—NYH cells [4]) was “up to 50 fold”.

Source: patent US20090209535A1, “6-ETHER/THIOETHER-PURINES AS TOPOISOMERASE II CATALYTIC INHIBITORS AND THEIR USE IN THERAPY” (TOPOTARGET A/S, priority 2005, published 2009)
